Assay type in all cases: cell-based
The subject of assay [1] is red blood cells (5% RBC suspension). The assay can be described thus: Test Example 2-2: in vitro hemolytic activity test (upper limit 200 μmol/L). To be noted: Test Example 2-2, hemolysis method 200 (upper concentration 200 μmol/L), 5% RBC suspension, 37° C., one hour, read-out: hemolysis IC50. How it is done: Nephrotoxic potentials of the compounds of the present invention whose X is —N(R^F)—CO—X^1 and X^1 is the group represented by formula (III) and T is —N(R^a5)— were investigated by in vitro hemolytic activity test under the condition that the upper limit was 200 μmol/L as the required concentration to 50% of hemolysis (IC50).
Defibrinated sterile blood was centrifuged at 700×g for 3 minutes and, and the supernatant was removed for 100% of red blood cells. After the cleaning with physiological saline, the washed blood cells was suspended in the medium (Earle's balanced salt sodium, bicarbonate, 0.1 g/L L-glutamine without phenol red), and was diluted by 5% (5% RBC suspension).
The washed blood was diluted by 5% in water for injection (solution of complete hemolysis), and was used as the indication of optical density for complete hemolysis.
The compounds of the present invention solution in DMSO (several and doubling dilutions starting from 10 mmol/L), DMSO as the negative control, and Amphotericin B as the positive control were used, and each 5 μL of these was added in to a well of V-form 96 well type microplate. Finally, the maximum concentration of the compounds of the present invention solution in DMSO was 200 μmol/L by adding 245 μL of the medium or 5% RBC suspension into the well.
Two hundred fifty μL of the solution of complete hemolysis was added into another well and the microplate was incubated at 37° C. in 5% of CO2 concentration for an hour.
After the incubation, each 100 μL of supernatants in wells was collected by centrifugation of the microplate at 300×g for 5 minutes and was located on a well of flat-form 96 well type microplate. An absorbance of each supernatant was measured at wavelength of 540 nm.
Percent hemolysis was calculated by using the followed equation. The required concentration to 50% of hemolysis (IC50) was calculated based on the percent hemolysis. […] Hemolysis (%)=(CR−VM)×100÷(VL−VR) Where:
CR: Absorbance of 5% RBC suspension incubated with the compounds of the present invention solution in DMSO
VM: Absorbance of medium incubated with the compounds of the present invention solution in DMSO
VL: Absorbance of solution of complete hemolysis
VR: Absorbance of 5% RBC suspension incubated with DMSO
The “>200” in the table means above IC50 value exceeded the upper concentration 200 μmol/L.

For assay [2] the test system is unchanged. As to the kind of experiment: Test Example 2-1: in vitro hemolytic activity test (upper limit 50, 80, 100 or 200 μmol/L). To be noted: hemolysis method 50 (upper concentration 50 μmol/L); 5% RBC suspension, 37° C., one hour; read-out: hemolysis IC50. A digest of the protocol:
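A 5% suspension of washed red cells in Earle's medium was exposed to doubling dilutions of compound from DMSO, with maxima of 50, 80, 100 or 200 μmol/L final, for 1 h at 37 °C, 5% CO2. Supernatant absorbance at 540 nm was normalised to water-lysed cells. IC50 is the concentration giving 50% hemolysis; ">" values exceed the top concentration.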

The subject of the next assay is C. albicans ATCC90028. As to the kind of experiment: Antifungal activity test, MIC by broth microdilution (CLSI M27-A3). Particulars: C. albicans ATCC90028; broth microdilution, 35° C., 24-48 hours, 100% inhibition. A digest of the protocol:
(§1)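 CLSI broth microdilution in RPMI 1640 with 2% glucose, 0.165 mol/L MOPS, pH 7.0; two-fold DMSO dilutions. MIC = lowest concentration giving 100% inhibition versus growth control.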
(In general: In broth dilution the organism is exposed to a series of concentrations in liquid medium.)

Another assay has as its system A. flavus ATCC204304. The assay can be described thus: Antifungal activity test, MIC by broth microdilution (CLSI M38-A2). Particulars: A. flavus ATCC204304; broth microdilution, 35° C., 24-48 hours, 100% inhibition. In outline:
as §1

The next assay has as its system A. fumigatus ATCC204305. The assay is described as above. Particulars: A. fumigatus ATCC204305; broth microdilution, 35° C., 24-48 hours, 100% inhibition. In outline:
as §1

pIC50: −log10 of the molar value. ≈ marks a conversion by molar mass, not a printed value.

For the compound `C[C@@H]1[C@H](O)[C@@H](C)/C=C/C=C/C=C/C=C/C=C/C=C/C=C/[C@H](O[C@@H]2O[C@H](C)[C@@H](O)[C@H](N)[C@@H]2O)C[C@@H]2O[C@](O)(C[C@@H](O)C[C@@H](O)[C@H](O)CC[C@@H](O)C[C@@H](O)CC(=O)O[C@H]1C)C[C@H](O)[C@H]2NC(=O)NNC(=O)c1ccccn1` [I-44], the pIC50 (commonly −log10 of the IC50, conventionally taken in molar units) in assay [1] was less than 3.70.
Turning to `COC(=O)NNC(=O)N[C@H]1[C@@H]2C[C@@H](O[C@@H]3O[C@H](C)[C@@H](O)[C@H](N)[C@@H]3O)/C=C/C=C/C=C/C=C/C=C/C=C/C=C/[C@H](C)[C@@H](O)[C@@H](C)[C@H](C)OC(=O)C[C@H](O)C[C@H](O)CC[C@@H](O)[C@H](O)C[C@H](O)C[C@](O)(C[C@@H]1O)O2` [I-47], the negative-log IC50 (pIC50) in assay [1] (Erythrocyte, 1 h) is less than 3.70.
With `C[C@@H]1[C@H](O)[C@@H](C)/C=C/C=C/C=C/C=C/C=C/C=C/C=C/[C@H](O[C@@H]2O[C@H](C)[C@@H](O)[C@H](N)[C@@H]2O)C[C@@H]2O[C@](O)(C[C@@H](O)C[C@@H](O)[C@H](O)CC[C@@H](O)C[C@@H](O)CC(=O)O[C@H]1C)C[C@H](O)[C@H]2NC(=O)NNCCN(C)C` [I-78], the pIC50 in assay [1] (Erythrocyte, 1 h) was less than 3.70.
As for `C[C@@H]1[C@H](O)[C@@H](C)/C=C/C=C/C=C/C=C/C=C/C=C/C=C/[C@H](O[C@@H]2O[C@H](C)[C@@H](O)[C@H](N)[C@@H]2O)C[C@@H]2O[C@](O)(C[C@@H](O)C[C@@H](O)[C@H](O)CC[C@@H](O)C[C@@H](O)CC(=O)O[C@H]1C)C[C@H](O)[C@H]2NC(=O)NNC(=O)CNC(=O)Nc1cccnc1` [I-123], the pIC50 in assay [1] was less than 3.70.
With `C[C@@H]1[C@H](O)[C@@H](C)/C=C/C=C/C=C/C=C/C=C/C=C/C=C/[C@H](O[C@@H]2O[C@H](C)[C@@H](O)[C@H](N)[C@@H]2O)C[C@@H]2O[C@](O)(C[C@@H](O)C[C@@H](O)[C@H](O)CC[C@@H](O)C[C@@H](O)CC(=O)O[C@H]1C)C[C@H](O)[C@H]2NC(=O)NNc1ncccc1C(F)(F)F` [I-124], the pIC50 in assay [1] was less than 3.70.
For the compound `C[C@@H]1[C@H](O)[C@@H](C)/C=C/C=C/C=C/C=C/C=C/C=C/C=C/[C@H](O[C@@H]2O[C@H](C)[C@@H](O)[C@H](N)[C@@H]2O)C[C@@H]2O[C@](O)(C[C@@H](O)C[C@@H](O)[C@H](O)CC[C@@H](O)C[C@@H](O)CC(=O)O[C@H]1C)C[C@H](O)[C@H]2NC(=O)NC[C@H](O)CC(=O)O` [I-250], in assay [2], the pIC50 was less than 4.30. Further, the figures for the MIC against C. albicans ATCC90028, with A. flavus ATCC204304 and in the assay on A. fumigatus ATCC204305 were 0.5 µg/mL (≈ 0.481 µM), 0.5 µg/mL (≈ 0.481 µM) and 1 µg/mL (≈ 0.961 µM), respectively.
Consider `C[C@@H]1[C@H](O)[C@@H](C)/C=C/C=C/C=C/C=C/C=C/C=C/C=C/[C@H](O[C@@H]2O[C@H](C)[C@@H](O)[C@H](N)[C@@H]2O)C[C@@H]2O[C@](O)(C[C@@H](O)C[C@@H](O)[C@H](O)CC[C@@H](O)C[C@@H](O)CC(=O)O[C@H]1C)C[C@H](O)[C@H]2NC(=O)NC[C@H](O)C(=O)O` [I-259], for which, in assay [2], the pIC50 was less than 4.30. For the same compound, the minimum inhibitory concentration (MIC) (commonly the lowest concentration that inhibits growth of the organism) was 0.5 µg/mL (≈ 0.487 µM) against C. albicans ATCC90028, 0.5 µg/mL (≈ 0.487 µM) against A. flavus ATCC204304 and 1 µg/mL (≈ 0.974 µM) with A. fumigatus ATCC204305.
As for `C[C@@H]1[C@H](O)[C@@H](C)/C=C/C=C/C=C/C=C/C=C/C=C/C=C/[C@H](O[C@@H]2O[C@H](C)[C@@H](O)[C@H](N)[C@@H]2O)C[C@@H]2O[C@](O)(C[C@@H](O)C[C@@H](O)[C@H](O)CC[C@@H](O)C[C@@H](O)CC(=O)O[C@H]1C)C[C@H](O)[C@H]2NC(=O)N1CCC1C(=O)O` (stereo partly drawn) [I-284], in assay [2], the pIC50 was less than 4.30. The results for the MIC in the assay on C. albicans ATCC90028, against A. flavus ATCC204304 and against A. fumigatus ATCC204305 were 0.5 µg/mL (≈ 0.489 µM), 0.5 µg/mL (≈ 0.489 µM) and 1 µg/mL (≈ 0.978 µM), respectively.
Turning to `C[C@@H]1[C@H](O)[C@@H](C)/C=C/C=C/C=C/C=C/C=C/C=C/C=C/[C@H](O[C@@H]2O[C@H](C)[C@@H](O)[C@H](N)[C@@H]2O)C[C@@H]2O[C@](O)(C[C@@H](O)C[C@@H](O)[C@H](O)CC[C@@H](O)C[C@@H](O)CC(=O)O[C@H]1C)C[C@H](O)[C@H]2NC(=O)NC[C@@H](O)C(=O)O` [I-311], the pIC50 in assay [2] is less than 4.30. Also, the MIC against C. albicans ATCC90028, against A. flavus ATCC204304 and against A. fumigatus ATCC204305 was 0.5 µg/mL (≈ 0.487 µM) in each case.
